BindingDB's records for patent US20240140931 (Hutchmed, 2024)

Biological target: T1, Tyrosine-protein phosphatase non-receptor type 11 (Homo sapiens, UniProt Q06124)
T1 sequence (Q06124 whole entry): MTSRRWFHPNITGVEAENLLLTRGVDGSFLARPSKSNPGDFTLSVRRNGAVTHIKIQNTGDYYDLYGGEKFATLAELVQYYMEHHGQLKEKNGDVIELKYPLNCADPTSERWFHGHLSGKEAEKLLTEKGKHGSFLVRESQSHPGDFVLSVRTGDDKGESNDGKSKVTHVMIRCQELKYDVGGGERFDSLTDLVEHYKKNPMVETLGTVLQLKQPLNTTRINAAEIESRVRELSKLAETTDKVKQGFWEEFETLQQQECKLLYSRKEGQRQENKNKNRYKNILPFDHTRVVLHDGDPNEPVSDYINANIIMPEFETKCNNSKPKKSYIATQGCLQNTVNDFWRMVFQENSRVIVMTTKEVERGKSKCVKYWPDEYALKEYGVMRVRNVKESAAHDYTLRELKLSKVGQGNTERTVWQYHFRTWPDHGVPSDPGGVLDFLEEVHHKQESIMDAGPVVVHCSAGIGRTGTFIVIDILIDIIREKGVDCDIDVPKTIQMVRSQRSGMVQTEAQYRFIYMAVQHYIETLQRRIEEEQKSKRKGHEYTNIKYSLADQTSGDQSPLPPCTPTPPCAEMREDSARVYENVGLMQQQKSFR
Test: Assay of Full-Length SHP2 Phosphatase Activity Assay
Protocol: 1. Reagents and MaterialsHuman full-length SHP2 recombinant protein: BPS Bioscience, Cat #79018;SHP2 substrate DiFMUP (1 mM): BPS Bioscience, Cat #79769;SHP2 activating peptide (100 μM): BPS Bioscience, Cat #79319-2;DTT: Merck, Cat #DTT-RO;384-well plate: Corning, Cat #3575;96-well plate: Thermo Fisher Scientific, Cat #249952;Instrument: EnVision 2104, PerkinElmer.2. Preparation of Reaction SolutionsThe test compound was dissolved in DMSO and diluted with DMSO to 100.0 μM, and the compound was further 3-fold diluted with DMSO to: 100.00, 33.33, 11.11, 3.70, 1.23, 0.41, 0.14 and 0.05 μM.

| IC50 | SMILES |
| --- | --- |
| 13 nM | C#Cc1ccc2c(c1)[C@@H](N)C1(CCN(c3cc(=O)n(-c4cc(OC)ccc4Cl)c(C)n3)CC1)C2 [US20240140931, Compound 44] |
| 1 nM | C#Cc1ccc2c(c1)[C@@H](N)C1(CCN(c3cc(=O)n(-c4cccc(C#N)c4Cl)c(C)n3)CC1)C2 [US20240140931, Compound 268] |
| > 100 nM | C#Cc1ccc2c(c1)[C@@H](N)C1(CCN(c3cc(=O)n(-c4cccc(C#N)c4Cl)c(C)n3)CC1)C2 [US20240140931, Compound 267] |
| < 0.5 nM | Cc1nc(N2CCC3(CC2)Cc2ccc(C#CCN(C)C)cc2[C@H]3N)cc(=O)n1-c1cccc(Cl)c1Cl [US20240140931, Compound 52] |
| 5 nM | C#Cc1ccc2c(c1)[C@@H](N)C1(CCN(c3cc(=O)n(-c4ccc(F)c(F)c4Cl)c(C)n3)CC1)C2 (atropisomer, axis not shown) [US20240140931, Compound 113] |

| SMILES | IC50 |
| --- | --- |
| Cc1nc(N2CCC3(CC2)Cc2ccc(SC4COC4)cc2[C@H]3N)cc(=O)n1-c1cccc(Cl)c1Cl [US20240140931, Compound 81] | 2 nM |
